pKi: −log10 of the molar value. Where “and” joins values, the source holds several entries; their conditions need not be identical. Identical values can stand only once.

Assay [1] deals with 5-hydroxytryptamine receptor 2B (Bos taurus, UniProt Q8MI09).
Assay [2] has as its target 5-hydroxytryptamine receptor 2A (Rattus norvegicus, UniProt P14842).

5-hydroxytryptamine receptor 2B, sequence (Q8MI09 whole entry): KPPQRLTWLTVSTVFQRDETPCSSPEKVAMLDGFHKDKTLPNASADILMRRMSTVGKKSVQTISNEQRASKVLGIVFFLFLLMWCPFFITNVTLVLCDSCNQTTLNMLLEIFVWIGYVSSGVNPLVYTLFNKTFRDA
5-hydroxytryptamine receptor 2A, sequence (P14842 whole entry): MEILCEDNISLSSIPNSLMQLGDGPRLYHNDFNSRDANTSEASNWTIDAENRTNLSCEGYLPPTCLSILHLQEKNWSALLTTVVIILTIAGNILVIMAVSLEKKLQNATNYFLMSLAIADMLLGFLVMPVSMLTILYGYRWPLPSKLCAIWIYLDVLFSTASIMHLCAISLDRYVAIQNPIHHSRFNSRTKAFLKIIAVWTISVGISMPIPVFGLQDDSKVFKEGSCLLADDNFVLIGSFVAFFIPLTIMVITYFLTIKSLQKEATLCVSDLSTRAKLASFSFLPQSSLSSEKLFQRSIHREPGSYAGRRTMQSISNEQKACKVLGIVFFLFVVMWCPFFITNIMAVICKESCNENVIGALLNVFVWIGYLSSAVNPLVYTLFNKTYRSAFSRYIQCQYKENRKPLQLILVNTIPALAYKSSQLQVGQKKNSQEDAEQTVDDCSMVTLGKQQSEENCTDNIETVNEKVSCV

For the compound `CN(C)CCc1c[nH]c2cccc(OP(=O)(O)O)c12` [psilocybin], the pKi in assay [1] is 6.22; in assay [2] it was 7.89. Take `COc1cc(CC(C)N)c(OC)cc1I` (stereo not drawn) [[125I]2,5-dimethoxy-4-iodoamphetamine]: the pKi in assay [1] is 7.00 and 7.26; in assay [2], 9.05 and 9.28.

`COc1cc(CC(C)N)c(OC)cc1C` (stereo not drawn) [(+/-)2-(2,5-Dimethoxy-4-methyl-phenyl)-1-methyl-ethylamine]: the pKi in assay [1] was 6.40; in assay [2] it was 8.32. In the case of `Clc1cccc(N2CCNCC2)c1` [mCPP], the pKi in assay [1] is 6.02; in assay [2], 7.68. For `CCCN(CCC)C1CCc2cccc(O)c2C1` (stereo not drawn) the same measures were 5.27 and 6.15. `CN(C)CCCSc1ccccc1NC(=O)/C=C/c1ccccc1` [CINANSERIN]: the pKi is 8.30 in assay [1] and 8.15 in assay [2]. Taken in the same sequence, the figures for `COc1ccc2[nH]cc(CCN(C)C)c2c1` [3-(2-DIMETHYLAMINOETHYL)-5-METHOXYINDOLE] were 5.89 and 7.85.

Turning to `COc1ccc2[nH]cc(C3=CCNCC3)c2c1` [5-Methoxy-3-(1,2,3,6-tetrahydro-pyridin-4-yl)-1H-indole(RU-24969)], the negative-log Ki (pKi) in assay [1] was 5.92. On the same count and under the same terms, next, `CN1C[C@@H](NS(=O)(=O)N(C)C)C[C@@H]2c3cccc4c3c(cn4C)C[C@H]21` [MESULERGINE]: 8.10. For `CN(C)CCc1c[nH]c2ccccc12` [2-(1H-indol-3-yl)-N,N-dimethylethanamine], the pKi was 6.26 in assay [1] and 7.38 in assay [2]. For `CN1C2CCC1CC(OC(=O)c1c[nH]c3ccccc13)C2` (stereo not drawn) the same measures were 5.59 and less than 5.00. `O=C(c1ccc(F)cc1)C1CCN(CCn2c(=O)[nH]c3ccccc3c2=O)CC1` [3-(2-{4-[(4-fluorophenyl)carbonyl]piperidin-1-yl}ethyl)-1,2,3,4-tetrahydroquinazoline-2,4-dione]: the pKi in assay [1] is 8.62. Take `COc1cc(CCN)cc(OC)c1OC` [3,4,5-trimethoxyphenylethylamine]: the figures for the pKi in assay [1] and in assay [2] were less than 5.00 and 6.82, respectively. Taken in the same sequence, the figures for `NCCc1c[nH]c2ccccc12` [1H-indole-3-ethanamine] were 5.89 and 7.96.

In the case of `NCCc1c[nH]c2ccc(C(N)=O)cc12` [[3H]-5-carboxamidotryptamine], in assay [1], the negative-log Ki (pKi) was less than 5.00. With `CN(C)CCCN1c2ccccc2Sc2ccc(Cl)cc21` [[3-(2-Chloro-phenothiazin-10-yl)-propyl]-dimethyl-amine(Chlorpromazine)], the pKi in assay [1] is 8.22. For `CCN(CC)C(=O)[C@@H]1C=C2c3cccc4[nH]cc(c34)C[C@H]2N(C)C1` [(4R,7R)-N,N-diethyl-6-methyl-6,11-diazatetracyclo[7.6.1.0^{2,7}.0^{12,16}]hexadeca-1(16),2,9,12,14-pentaene-4-carboxamide], the negative-log Ki (pKi) in assay [1] was 7.96. In the case of `c1ccc2nc(N3CCNCC3)ccc2c1` [2-Piperazin-1-yl-quinoline (Quipazine)], the values for the pKi in assay [1] and in assay [2] were 6.34 and 8.30, respectively. For the compound `CN(C)CCc1c[nH]c2cccc(O)c12` [4-hydroxy-N,N-dimethyltryptamine], the values for the pKi in assay [1] and in assay [2] were 6.35 and 7.92, respectively.

With `CCc1cc(OC)c(CC(C)N)cc1OC` (stereo not drawn), the pKi in assay [1] is 7.10.

One may read the pKi as the negative decadic logarithm of the Ki, by convention in mol/L.

These data come from BindingDB's records for PubMed 2795135 (Stanford University, 1989).
